# Measured values from patent publication US6737383B1, “Herbicidal oxadiazolidines” (priority 1999, dated 2004).
# Experiments:
# bedstraw = assay: Test B pre/postemergence bedstraw; format: in vivo, Galium aparine
# Outline: (§1)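 Herbicidal effect was estimated by eye on a ten-point control scale after plants spent twelve to sixteen days in a greenhouse following soil or foliar treatment. Foliar sprays targeted plants at one to four leaves; all doses were formulated in a non-phytotoxic solvent with surfactant.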
# blackgrass = assay: Test B pre/postemergence blackgrass; format: in vivo, Alopecurus myosuroides
# Outline: as §1
# surinam grass = assay: Test B pre/postemergence surinam grass; format: in vivo, Brachiaria decumbens
# Outline: as §1
# cocklebur = assay: Test B pre/postemergence cocklebur; format: in vivo, Xanthium strumarium
# Outline: as §1
# corn = assay: Test B pre/postemergence corn; format: in vivo, Zea mays
# Outline: as §1
# crabgrass = assay: Test B pre/postemergence crabgrass; format: in vivo, Digitaria sanguinalis
# Outline: as §1
# giant foxtail = assay: Test B pre/postemergence giant foxtail; format: in vivo, Setaria faberii
# Outline: as §1
# rape = assay: Test B pre/postemergence rape; format: in vivo, Brassica napus
# Outline: as §1
# soybean = assay: Test B pre/postemergence soybean; format: in vivo, Glycine max
# Outline: as §1
# sugar beet = assay: Test B pre/postemergence sugar beet; format: in vivo, Beta vulgaris
# Outline: as §1
# velvetleaf = assay: Test B pre/postemergence velvetleaf; format: in vivo, Abutilon theophrasti
# Outline: as §1
# wheat = assay: Test B pre/postemergence wheat; format: in vivo, Triticum aestivum
# Outline: as §1
# purple nutsedge = assay: Test B pre/postemergence purple nutsedge; format: in vivo, Cyperus rotundus
# Outline: as §1
# rice = assay: Test B flood test rice; format: in vivo, Oryza sativa
# Outline: (§2)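 Flood test on plants grown to the 2-leaf stage; treated plants kept in greenhouse twelve to sixteen days, then visually rated against controls on a 0 (no effect) to 10 (complete control) scale.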
# smallflower flatsedge = assay: Test B flood test smallflower flatsedge; format: in vivo, Cyperus difformis
# Outline: as §2
# duck salad = assay: Test B flood test duck salad; format: in vivo, Heteranthera limosa
# Outline: as §2
# bamyardgrass = assay: Test B flood test barnyardgrass; format: in vivo, Echinochloa crus-galli
# Outline: as §2
# [1] = Preemergence, Rate 62 g/ha, scale of 0 to 10 where 0 is no effect and 10 is complete control
# [2] = Preemergence, Rate 250 g/ha, scale 0 to 10, 0 is no effect, 10 is complete control
# [3] = Preemergence, Rate 500 g/ha, scale of 0 to 10 where 0 is no effect and 10 is complete control
# [4] = Rate 62 g/ha, Postemergence, scale of 0 to 10 where 0 is no effect and 10 is complete control
# [5] = Rate 125 g/ha, Postemergence, scale 0 to 10
# [6] = Rate 125 g/ha, Preemergence, scale of 0 to 10 where 0 is no effect and 10 is complete control
# [7] = Rate 500 g/ha, Postemergence, scale 0 to 10
# [8] = Rate 62 g/ha, headed Pre-emergence (flood test species), scale 0 to 10 (0 no effect, 10 complete control)
# [9] = Rate 125 g/ha, Pre-emergence, flood test species, scale 0 to 10 where 0 is no effect and 10 is complete control
# [10] = Rate 250 g/ha, Pre-emergence, flood-test species, scale 0 to 10, 0 is no effect, 10 is complete control
# [11] = Rate 500 g/ha, Pre-emergence, flood test species, scale 0 to 10 (0 no effect, 10 complete control)
smiles,measurement,setting,value
CC(C)N(C(=O)n1oc(=O)n(CC=Cc2ccccc2)c1=O)c1ccc(F)cc1 [Compound 210],Bedstraw plant response rating,bedstraw; [1],0
same,Bedstraw plant response rating,bedstraw; [2],0
same,"Plant response rating, Bedstraw",bedstraw; [3],0
same,Bedstraw plant response rating,bedstraw; [4],0
same,Bedstraw plant response rating,bedstraw; [5],2
same,Bedstraw plant response rating,bedstraw; [6],0
same,"Plant response rating (0 to 10; 0 is no effect, 10 is complete control), Bedstraw","bedstraw; Rate 250 g/ha, Postemergence",4
same,Blackgrass plant response rating,blackgrass; [1],0
same,Blackgrass plant response rating,blackgrass; [2],0
same,"Plant response rating, Blackgrass",blackgrass; [3],4
same,Blackgrass plant response rating,blackgrass; [4],0
same,Blackgrass plant response rating,blackgrass; [5],0
same,Blackgrass plant response rating,blackgrass; [6],0
same,"Plant response rating (0 to 10; 0 is no effect, 10 is complete control), Blackgrass","blackgrass; Rate 250 g/ha, Postemergence",0
same,Blackgrass plant response rating,blackgrass; [7],2
same,B. signalgrass plant response rating,surinam grass; [1],0
same,B. signalgrass plant response rating,surinam grass; [2],0
same,"Plant response rating, B. signalgrass",surinam grass; [3],0
same,B. signalgrass plant response rating,surinam grass; [4],0
same,B. signalgrass plant response rating,"surinam grass; Rate 125 g/ha, Postemergence, scale 0 (no effect) to 10 (complete control)",0
same,B. signalgrass plant response rating,surinam grass; [6],0
same,"Plant response rating (0 to 10; 0 is no effect, 10 is complete control), B. signalgrass","surinam grass; Rate 250 g/ha, Postemergence",0
same,B. signalgrass plant response rating,"surinam grass; Rate 500 g/ha, Postemergence, scale 0 to 10, 0 no effect, 10 complete control",0
same,Cocklebur plant response rating,cocklebur; [1],0
same,Cocklebur plant response rating,cocklebur; [2],0
same,"Plant response rating, Cocklebur",cocklebur; [3],0
same,Cocklebur plant response rating,cocklebur; [4],0
same,Cocklebur plant response rating,cocklebur; [5],0
same,Cocklebur plant response rating,cocklebur; [6],0
same,"Plant response rating (0 to 10; 0 is no effect, 10 is complete control), Cocklebur","cocklebur; Rate 250 g/ha, Postemergence",0
same,Cocklebur plant response rating,cocklebur; [7],2
same,Corn plant response rating,corn; [1],0
same,Corn plant response rating,corn; [2],0
same,"Plant response rating, Corn",corn; [3],0
same,Corn plant response rating,corn; [4],0
same,Corn plant response rating,corn; [5],0
same,Corn plant response rating,corn; [6],0
same,"Plant response rating (0 to 10; 0 is no effect, 10 is complete control), Corn","corn; Rate 250 g/ha, Postemergence",0
same,Corn plant response rating,corn; [7],0
same,Crabgrass plant response rating,crabgrass; [1],0
same,Crabgrass plant response rating,crabgrass; [2],3
same,"Plant response rating, Crabgrass",crabgrass; [3],8
same,Crabgrass plant response rating,crabgrass; [4],0
same,Crabgrass plant response rating,crabgrass; [5],0
same,Crabgrass plant response rating,crabgrass; [6],0
same,"Plant response rating (0 to 10; 0 is no effect, 10 is complete control), Crabgrass","crabgrass; Rate 250 g/ha, Postemergence",0
same,Crabgrass plant response rating,crabgrass; [7],0
same,Giant foxtail plant response rating,giant foxtail; [1],0
same,Giant foxtail plant response rating,giant foxtail; [2],3
same,"Plant response rating, Giant foxtail",giant foxtail; [3],5
same,Giant foxtail plant response rating,giant foxtail; [4],0
same,Giant foxtail plant response rating,giant foxtail; [5],0
same,Giant foxtail plant response rating,giant foxtail; [6],0
same,"Plant response rating (0 to 10; 0 is no effect, 10 is complete control), Giant foxtail","giant foxtail; Rate 250 g/ha, Postemergence",0
same,Giant foxtail plant response rating,giant foxtail; [7],0
same,Rape plant response rating,rape; [1],0
same,Rape plant response rating,rape; [2],0
same,"Plant response rating, Rape",rape; [3],3
same,Rape plant response rating,rape; [4],0
same,Rape plant response rating,rape; [5],0
same,Rape plant response rating,rape; [6],0
same,"Plant response rating (0 to 10; 0 is no effect, 10 is complete control), Rape","rape; Rate 250 g/ha, Postemergence",0
same,Rape plant response rating,rape; [7],0
same,Soybean plant response rating,soybean; [1],0
same,Soybean plant response rating,soybean; [2],0
same,"Plant response rating, Soybean",soybean; [3],0
same,Soybean plant response rating,soybean; [4],1
same,Soybean plant response rating,soybean; [5],1
same,Soybean plant response rating,soybean; [6],0
same,"Plant response rating (0 to 10; 0 is no effect, 10 is complete control), Soybean","soybean; Rate 250 g/ha, Postemergence",1
same,Soybean plant response rating,soybean; [7],3
same,Sugarbeets plant response rating,sugar beet; [1],0
same,Sugarbeets plant response rating,sugar beet; [2],0
same,"Plant response rating, Sugarbeets",sugar beet; [3],3
same,Sugarbeets plant response rating,sugar beet; [4],0
same,Sugarbeets plant response rating,sugar beet; [5],0
same,Sugarbeets plant response rating,sugar beet; [6],0
same,"Plant response rating (0 to 10; 0 is no effect, 10 is complete control), Sugarbeets","sugar beet; Rate 250 g/ha, Postemergence",0
same,Sugarbeets plant response rating,sugar beet; [7],4
same,Velvetleaf plant response rating,velvetleaf; [1],0
same,Velvetleaf plant response rating,velvetleaf; [2],0
same,"Plant response rating, Velvetleaf",velvetleaf; [3],0
same,Velvetleaf plant response rating,velvetleaf; [4],0
same,Velvetleaf plant response rating,velvetleaf; [5],0
same,Velvetleaf plant response rating,velvetleaf; [6],0
same,"Plant response rating (0 to 10; 0 is no effect, 10 is complete control), Velvetleaf","velvetleaf; Rate 250 g/ha, Postemergence",2
same,Wheat plant response rating,wheat; [1],0
same,Wheat plant response rating,wheat; [2],0
same,"Plant response rating, Wheat",wheat; [3],0
same,Wheat plant response rating,wheat; [4],0
same,Wheat plant response rating,wheat; [5],0
same,Wheat plant response rating,wheat; [6],0
same,"Plant response rating (0 to 10; 0 is no effect, 10 is complete control), Wheat","wheat; Rate 250 g/ha, Postemergence",0
same,Nutsedge plant response rating,purple nutsedge; [1],0
same,Nutsedge plant response rating,purple nutsedge; [2],0
same,"Plant response rating, Nutsedge",purple nutsedge; [3],0
same,Nutsedge plant response rating,purple nutsedge; [4],0
same,Nutsedge plant response rating,purple nutsedge; [5],0
same,Nutsedge plant response rating,purple nutsedge; [6],0
same,"Plant response rating (0 to 10; 0 is no effect, 10 is complete control), Nutsedge","purple nutsedge; Rate 250 g/ha, Postemergence",0
same,Nutsedge plant response rating,purple nutsedge; [7],0
same,Rice plant response rating,rice; [8],0
same,Rice plant response rating,rice; [9],0
same,Rice plant response rating,rice; [10],0
same,Rice plant response rating,rice; [11],0
same,S. Flatsedge plant response rating,smallflower flatsedge; [8],0
same,S. Flatsedge plant response rating,smallflower flatsedge; [9],0
same,S. Flatsedge plant response rating,smallflower flatsedge; [10],0
same,S. Flatsedge plant response rating,smallflower flatsedge; [11],0
same,Ducksalad plant response rating,duck salad; [8],0
same,Ducksalad plant response rating,duck salad; [9],0
same,Ducksalad plant response rating,duck salad; [10],0
same,Ducksalad plant response rating,duck salad; [11],0
same,Barnyardgrass plant response rating,bamyardgrass; [8],0
same,Barnyardgrass plant response rating,bamyardgrass; [9],0
same,Barnyardgrass plant response rating,bamyardgrass; [10],0
same,Barnyardgrass plant response rating,bamyardgrass; [11],0
